# From patent publication US20090111781A1, “Use of Cymipristone Type Compounds in Aids Treatment” (SHANGHAI THREE-ALLIANCE BIOTECHNOLOGIES CO., LTD., priority 2005, published 2009)
# How the values were obtained:
# in vitro = conditions: human
# Method: (§1) Collect cells with curette, infect cells with 10^−2 AZT sensitive (018a) or AZT resistant (018c) virus strain liquid, and adsorb for 2 hours, Wash off unabsorbed virus with 1640 culture medium without serum, prepare cells infected by virus to 1×10^6/ml with culture solution, and inoculate on 96-pore culture plate, 100 μl/pore. […] Set cell control group and virus infected cell control group. Incubate under 37° C. and 5% CO2. On the fourth day (96 hours), pipette out the supernatant liquid and store under −20° C. for determination of HIV-1 P24 antigen titer and calculation of drug inhibitory action. Add MTT staining to cells for determination of cytotoxicity. Determination of cytotoxicity by MTT staining: Add 10 μl of 5 mg/ml MTT stain into each pore, continue to incubate under 37° C., 5% CO2 and saturated humidity for 4 hours. […] Determine the HIV-1 P24 antigen titer according to the operation procedure provided by the HIV-1 P24 antigen reagent kit. Compare the drug-added group with virus control group. […] Calculation method of 50% toxic concentration (CC50), 50% effective concentration (EC50) and selection index (SI): […]
# [1] = system: HIV-1 AZT-sensitive strain 018a P24 antigen; experiment: Inhibition of HIV-1 018a P24 antigen in PBMC cell culture; assay type: cell-based; conditions: for EC50: Human immunodeficiency virus 1, PBMC, 2 h, administration after adsorbing 2 hours
# Method: (§2) Collect cells with curette, infect cells with 10^−2 AZT sensitive (018a) or AZT resistant (018c) virus strain liquid, and adsorb for 2 hours, Wash off unabsorbed virus with 1640 culture medium without serum, prepare cells infected by virus to 1×10^6/ml with culture solution, and inoculate on 96-pore culture plate, 100 μl/pore. […] Set cell control group and virus infected cell control group. Incubate under 37° C. and 5% CO2. On the fourth day (96 hours), pipette out the supernatant liquid and store under −20° C. for determination of HIV-1 P24 antigen titer and calculation of drug inhibitory action. Add MTT staining to cells for determination of cytotoxicity. Determination of cytotoxicity by MTT staining: Add 10 μl of 5 mg/ml MTT stain into each pore, continue to incubate under 37° C., 5% CO2 and saturated humidity for 4 hours. […] Determine the HIV-1 P24 antigen titer according to the operation procedure provided by the HIV-1 P24 antigen reagent kit. Compare the drug-added group with virus control group. […] Calculation method of 50% toxic concentration (CC50), 50% effective concentration (EC50) and selection index (SI):
# (§3) (3) Calculation Method of Selection Index (SI) on HIV-1 P24 Antigen in Cell Culture SI=CC50/EC50
# [2] = system: HIV-1 AZT-resistant strain 018c P24 antigen; experiment: Inhibition of HIV-1 018c P24 antigen in PBMC cell culture; assay type: cell-based; conditions: 018c; for EC50: Human immunodeficiency virus 1, PBMC, 2 h, PBMC, administration after adsorbing 2 hours; for SI: SI=CC50/EC50
# Method: as §2, §3
# [3] = MTT toxicity on PBMC infected by HIV-1 AZT-resistant strain 018c; conditions: human
# Method: as §1
# thymus gland cells = experiment: Anti-glucocorticoid activity test, [3H]-TdR incorporation in rat thymus gland cells; assay type: cell-based; conditions: dexamethasone 6×10^−8 mol/L used singly
# Method: Clean female SD rats, body weight 200-250 g, are fed with certain quantity of food and freely drink water. The temperature is controlled at about 24° C. and an illumination cycle are for 11 hours by day and 13 hours at night. All animals are observed for 1 week before experiment. Rats are anesthetized with ethyl ether. Incisions are made on two sides below costal arch of ribs on dorsal position of rats to extirpate adrenal glands. The rats are fed with physiological saline after operation. On the seventh day, animals are acutely executed. Take out thymus gland to place in to HBSS buffer solution, wash twice, remove connective tissue, cut the tissue with scissors, lightly grind with homogenizer, filter with three layers of gauze, and centrifuge the filtrate for 5 min (500 rpm). Wash the precipitated cells twice with HBSS, re-suspend the cells in RPMI1640 culture medium for cell count and cell survival rate determination, and adjust cell concentration to 1×10^7/ml. Determination of anti-glucocorticoid activity: Add tested compound into culture medium, reaction concentration 6×10^−[…], and place in 37° C. incubator for 3 hours. Add thymus gland cells to make cell concentration to become 10^7/ml and incubate at 37° C. for 3 hours. Add 1 μCi of label substance, mix, and incubate for 1 hour. Add 100 μl of ice cold 5% trichloroacetic acid to end the reaction. Place the test tube on ice and wash twice with 2 ml of ice cold 5% trichloroacetic acid and centrifuge twice, 500 rpm×5 min, Add 0.5 ml of 1N NaOH to dissolve the precipitated cells, pipet out the liquid, dry the residue with cotton stick, place into same scintillation bottle, and determine the radioactivity by liquid scintillation counter.
# Calculate the incorporation rate of [^3H]-TdR:
# In which: T=[^3H]-TdR count without presence of compound, Td=count with presence of compound, and NSB=non-specific adsorption.
# Inhibition rate=100%−incorporation rate
# [4] = target: T1, glucocorticoid receptor of rat hepatic cytoplasm (Rattus norvegicus, UniProt P06536); experiment: Competition inhibition of [3H]-dexamethasone binding in rat hepatic cytoplasm; conditions: read-out: Inhibition rate on binding of [3H]-dexamethasone
# T1 construct: centrifuge at 175000 g for 1 hour, and take out the supernatant liquid as reserve; from tissue; host or cells: liver cytosol (175000 g supernatant) of adrenalectomised female SD rats
# T1 sequence (P06536 1-795): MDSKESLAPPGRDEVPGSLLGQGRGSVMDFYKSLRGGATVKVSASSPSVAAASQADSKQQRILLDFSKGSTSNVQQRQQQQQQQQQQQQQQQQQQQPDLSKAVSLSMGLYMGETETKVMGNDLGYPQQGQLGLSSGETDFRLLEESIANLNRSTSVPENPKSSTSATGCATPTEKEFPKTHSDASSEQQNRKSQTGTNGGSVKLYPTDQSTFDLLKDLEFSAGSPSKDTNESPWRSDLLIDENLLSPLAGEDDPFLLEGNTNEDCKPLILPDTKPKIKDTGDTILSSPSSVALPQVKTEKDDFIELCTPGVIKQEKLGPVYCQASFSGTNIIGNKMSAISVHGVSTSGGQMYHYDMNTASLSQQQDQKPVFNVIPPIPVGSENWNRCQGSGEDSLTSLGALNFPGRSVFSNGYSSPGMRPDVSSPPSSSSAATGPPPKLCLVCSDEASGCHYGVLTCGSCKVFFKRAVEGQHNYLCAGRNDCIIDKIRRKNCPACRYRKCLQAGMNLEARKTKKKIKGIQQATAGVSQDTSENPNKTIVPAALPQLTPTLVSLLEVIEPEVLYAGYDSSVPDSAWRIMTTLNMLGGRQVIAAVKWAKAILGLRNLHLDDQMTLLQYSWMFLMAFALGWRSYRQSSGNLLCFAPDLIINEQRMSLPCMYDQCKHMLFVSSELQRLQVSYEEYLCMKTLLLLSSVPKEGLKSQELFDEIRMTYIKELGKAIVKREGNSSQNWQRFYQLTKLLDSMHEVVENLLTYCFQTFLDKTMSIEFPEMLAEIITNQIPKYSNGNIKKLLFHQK
# Method: Clean female SD rats, body weight 200-250 g, are fed with certain quantity of food and freely drink water. The temperature is controlled at about 24° C. and an illumination cycle are for 11 hours by day and 13 hours at night. All animals are observed for 1 week before experiment. Incisions are made on two sides below arch of ribs on dorsal position of rats to extirpate adrenal glands. After operation, the rats are fed with physiological saline to maintain water-electrolyte balance. On the third day after operation, animals are acutely executed. The liver is taken out immediately and placed in ice cold buffer solution; the blood should be washed off as much as possible. Take certain quantity of tissue, add buffer solution (1:4), cut the tissue with scissors, intermittently homogenize the tissue under low temperature, centrifuge at 175000 g for 1 hour, and take out the supernatant liquid as reserve. […] Then carry out the competition inhibition experiment.
# [5] = 50% toxic concentration CC50, Average
# [6] = 50% toxic concentration CC50, Experiment 1
# [7] = 50% toxic concentration CC50, Experiment 2
SMILES,"EC50 ([1]; Average, PBMC)","EC50 ([1]; Experiment 1, PBMC)","EC50 ([1]; Experiment 2, PBMC)",EC50 ([2]; Average),EC50 ([2]; Experiment 1),EC50 ([2]; Experiment 2),"CC50 at 96 h [3, 5]","CC50 at 96 h [3, 6]","CC50 at 96 h [3, 7]",other results
"Cc1cn([C@H]2C[C@H](N=[N+]=[N-])[C@@H](CO)O2)c(=O)[nH]c1=O [AZT, zidovudine]",< 0.0064 µg/mL,< 0.0061 µg/mL,< 0.0064 µg/mL,0.054 µg/mL,0.047 µg/mL,0.061 µg/mL,74.3 µg/mL,70.7 µg/mL,77.9 µg/mL,"CC50 at 96 h (in vitro; 50% toxic concentration CC50): 58.8 µg/mL; SI ([1]; SI=CC50/EC50, Average): 10275.78; SI ([1]; SI=CC50/EC50, Experiment 1): 9193.75; SI ([1]; SI=CC50/EC50, Experiment 2): 11357.81; SI ([2]; Average): 1390.87; SI ([2]; Experiment 1): 1504.68; SI ([2]; Experiment 2): 1277.05"
"C[C@@H]1C[C@H]2[C@@H]3CCC4=CC(=O)C=C[C@]4(C)[C@@]3(F)[C@@H](O)C[C@]2(C)[C@@]1(O)C(=O)CO [Dexamethasone, dexamethasone]",,,,,,,,,,Incorporation rate of [3H]-TdR (thymus gland cells): 43.2%±3.7; inhibition at 0.0008 µM [4]: 14.7 ± 7.34%; inhibition at 0.0016 µM [4]: 10.4 ± 6.11%; inhibition at 0.004 µM [4]: 24.8 ± 5.92%; inhibition at 0.02 µM [4]: 39.4 ± 4.83%; inhibition at 0.1 µM [4]: 60.4 ± 5.67%; inhibition at 0.5 µM [4]: 89.2 ± 8.56%
"CC#C[C@]1(O)CC[C@H]2[C@@H]3CCC4=CC(=O)CCC4=C3[C@@H](c3ccc(N(C)C)cc3)C[C@@]21C [Mifepristone, mifepristone]",12.4 µg/mL,12.4 µg/mL,12.4 µg/mL,10.1 µg/mL,10.4 µg/mL,9.84 µg/mL,89.9 µg/mL,105 µg/mL,74.7 µg/mL,"CC50 at 96 h (in vitro; 50% toxic concentration CC50, Average, PBMC, 018a): 83.6 µg/mL; CC50 at 96 h (in vitro; 50% toxic concentration CC50, Experiment 1, PBMC, 018a): 69.4 µg/mL; CC50 at 96 h (in vitro; 50% toxic concentration CC50, Experiment 2, PBMC, 018a): 97.8 µg/mL"
